Reference: patent US5175172A, “Method of alleviating AIDS symptoms and compositions therefor” (priority 1988, dated 1992)
Values joined by “and” are separate entries in the source; they are usually repeats but may differ in a detail not shown here. Equal entries are not always repeated. Where two headings read alike, the source gives them in different places.

How the values were obtained:
[1] = test system: T4
Description: Seven Month Follow-Up of Tacrine (THA) vs Zidovudine (AZT) in 72 HIV Infected Patients
Comparison of serological and clinical status of HIV infected patients after THA versus AZT treatment in an open study.
[…] (61 males, 11 females) with HIV infection ([…], 10 stages II and III), received either AZT (46 patients 600-1200 mg./day) or THA (26 patients 150-250 mg/day). In cases of intolerance or inefficacy, treatment was discontinued and patients were treated by the other drug.

[2] = test system: Agp 24; test: Seven month follow-up of THA vs AZT in HIV infected patients (open study): Agp 24; format: in vivo
Excerpt: Expressed in mean variation (%) in comparison with Do values.

[3] = test system: HIV; test: Seven month follow-up of THA vs AZT in HIV infected patients (open study): clinical results; format: in vivo, human
Description: (§8) 70 patients (61 males, 11 females) with HIV infection (69 stage IV, 10 stages II and III), received either AZT (46 patients 600-1200 mg./day) or THA (26 patients 150-250 mg/day).
(§9) 13 patients were treated by THA alone, 20 by AZT alone, 26 by AZT then THA and 13 by THA then AZT. Mean duration of treatment was 5.8 months for 53 courses of AZT 5.4 months for 52 courses of THA.

[4] = Seven month follow-up of THA vs AZT in HIV infected patients (open study): withdrawals for toxicity; format: in vivo, human; conditions: AZT n = 52; THA n = 51
Description: as §8, §9

[5] = test system: HIV; conditions: for Antigenemia, evolution (%) in comparison with D0: D0 value 462 pg/ml
Description: (§1) Seven Month Follow-Up Study of Tacrine Administration to 26 HIV Infected Patients
(§2) Tacrine was supplied as capsules containing 63.5 mg. Tacrine hydrochloride,monohydrate corresponding to 50 mg. base. An inert excipient (lactose) was added to fill white hard size 3 gelatin capsules.
(§3) For the first 15 days, patients received 2 capsules a day (i.e., 1 capsule at 8 A.M. and 1 at 8 P.M.). After the first 15 days, if nausea had not occurred or had ceased, the dosage was augmented by 1 capsule (i.e., 1 capsule at 8 A.M., 1 at lunch time and 1 at 8 P.M.). After this second period of 15 days, if nausea had not occurred or had ceased, the dosage was augmented by a further 1 capsule, to reach 4 capsules a day (i.e., 1 capsule at 8 A.M., 1 at lunch time, 1 at 4 P.M. and 1 at 8 P.M.).
(§4) D0 --Inclusion Examination--Serological, hematological and clinical determinations. Patients are supplied with capsules of Tacrine for 15 days.
(§5) D15 --First Control after 15 Days Treatment--Serological, hematological and clinical determinations. Patients are supplied with capsules of Tacrine for 15 days.
(§6) D1mth --Second control after 1 month of Treatment--Serological, hematological and clinical determinations. Patients are supplied with capsules of Tacrine for 1 month.
(§7) D'n'mth --Same as D1mth. Following examinations of one month interval each.

[6] = test system: T4 Lymphocytes; conditions: D0 value 203/mm^3
Description: as §1, §2, §3, §4, §5, §6, §7

[7] = Seven month follow-up of Tacrine in 26 HIV infected patients: tolerability, side effects and withdrawals; format: in vivo, human
Description: Tacrine was supplied as capsules containing 63.5 mg. Tacrine hydrochloride,monohydrate corresponding to 50 mg. base.
D0 --Inclusion Examination--Serological, hematological and clinical determinations.
as §7
Their mean age was 40.3 (range 27-65).
Mean duration of treatment was 6 months.

[8] = biological target: T1, reverse transcriptase of the HIV 1 virus (Human immunodeficiency virus type 1 group M subtype B, UniProt P04585); test: Action on reverse transcriptase of the HIV 1 virus (3H thymidine triphosphate incorporation); format: biochemical
T1 construct: Action on Reverse Transcriptase of the HIV 1 Virus; made in house; host or cells: HIV 1 virus grown on CEM cells; virus pelleted from the culture medium and resuspended in Triton X 100 (viral lysate, not recombinant)
Description: For the direct study of the action of the product on the activity of the reverse transcriptase, the virus was concentrated by ultracentrifugation and the plugs of virus removed from the culture medium are resuspended in a solution containing 0.15% Triton X 100, 0.05M Tris at pH 7.8 and 20% glycerol.
These preparations, frozen at -20° C., are active for several months and served for the direct measurement of the products on enzymatic activity.
The THA is diluted as stated above and added to 40 μl of the incubation solution under a volume of 5.5 μl before the addition of 10 μl of the enzymatic preparation. Initial concentrations of the product are thus 10 times more concentrated than the final dilution in the presence of the enzyme. The controls received 5.5 μl of water.

[9] = biological target: polymerase of Micrococcus Lysodecticus; conditions: read-out: Di50 for the inhibition of the DNA polymerase; specificity test, same concentrations as for reverse transcriptase
Excerpt: In order to evaluate the specificity of THA, the effects on the reverse transcriptase and on a non-viral DNA polymerase, namely the polymerase of Micrococcus Lysodecticus have been compared at the same concentrations.

[10] = test system: CEM cells
Description: The CEM lines utilized for the multiplication of the virus, as well as for the inhibition studies, was provided by Service of Francoise Barre-Sinoussi, at the Institute Pasteur. The culture medium is RPMI 1640, supplemented with 10% fetal calf serum, 2% glutamine and 1% antibiotics. The cells are counted and subcultured in a culture flask every 3 or 4 days. In certain cases, the fungicide amphotericin B is added in dosages of 5 μg./ml.
The HIV 1 virus was provided from the same source and grown on CEM cells in the culture described above. The infection is created with a supernatant on the culture at a dose level of 50,000 cpm per 10^6 cells.
Healthy CEM cells were infected with HIV 1 virus at 40,000 cpm per 10^6 cells. After 7 days of infection at 37° C. an equal quantity of healthy cells are added, non-absorbed viruses removed and 5.10^5 cells/ml. and 5 ml. of medium are brought into the presence of THA.
During 5 or 6 days, the cells are counted and the supernatant of the culture is recovered for evaluation of the reverse transcriptase activity, that is to say, to determine the production of HIV 1 virus liberated by the cells. The cells are subculture into fresh medium containing the inhibitor at different concentrations.

[11] = Hepatotoxicity on administration of Tacrine (prior reports and applicants' studies); format: in vivo; conditions: more recent studies by Applicants
[12] = test system: HIV 1 virus; conditions: 5 μM and 10 μM THA
Description: The HIV 1 virus was provided from the same source and grown on CEM cells in the culture described above. The infection is created with a supernatant on the culture at a dose level of 50,000 cpm per 10^6 cells. The infection is followed by the evaluation of the activity of the reverse transcriptase which can reach a level of 10^6 cpm/ml. at the end of the culture. […]
35 μl of an incubation medium are made up of a solution of 0.07M magnesium chloride, 0.028M potassium chloride, 0.07M Tris at pH 7.8, 1.4 mM DTT and contain 5 μCi of ^3 H thymidine triphosphate, 2.5 μl of poly A are added to a unit of OD/ml. and 2.5 μl of oligo dT 12-18 to 1 unit of O.D/ml. and finally 10 μl of the plug resuspension from the ultracentrifugation or a control enzymatic preparation. […] The incorporated radioactivity which is as precipitated as an acid insoluble form was washed on Millipore HA 0.45 micron filters and counted by liquid scintillation counters. […]

[13] = reported by Byrne and Acie, British Med. J. 298 (1989) 845; cited from earlier work
[14] = during the first month of treatment
[15] = within the first month of treatment

Cc1cn([C@H]2C[C@H](N=[N+]=[N-])[C@@H](CO)O2)c(=O)[nH]c1=O [AZT]
T4 /mm^3, mean variation (%) in comparison with D0 ([1]; D1mth): +0.5%
T4 /mm^3, mean variation (%) in comparison with D0 ([1]; D2mth): +8.1%
T4 /mm^3, mean variation (%) in comparison with D0 ([1]; D3mth): +18.5%
T4 /mm^3, mean variation (%) in comparison with D0 ([1]; D4mth): +8.8%
T4 /mm^3, mean variation (%) in comparison with D0 ([1]; D5mth): +17.2%
T4 /mm^3, mean variation (%) in comparison with D0 ([1]; D6mth): -40%
T4 /mm^3, mean variation (%) in comparison with D0 ([1]; D7mth): -40%
Agp 24, mean variation (%) in comparison with D0 ([2]; D1mth): -20.6%
Agp 24, mean variation (%) in comparison with D0 ([2]; D2mth): +3.4%
Agp 24, mean variation (%) in comparison with D0 ([2]; D3mth): -1%
Agp 24, mean variation (%) in comparison with D0 ([2]; D4mth): +55.6%
Agp 24, mean variation (%) in comparison with D0 ([2]; D5mth): +36.5%
Agp 24, mean variation (%) in comparison with D0 ([2]; D6mth): +173%
Agp 24, mean variation (%) in comparison with D0 ([2]; D7mth): +142%
Deaths, number ([3]; AZT n = 52, THA n = 51): 7
Deaths, percent ([3]; AZT n = 52, THA n = 51): 12%
Kaposi Emergence, number ([3]; AZT n = 52, THA n = 51): 3
Kaposi Emergence, percent ([3]; AZT n = 52, THA n = 51): 5%
Opportunistic Infections, number ([3]; AZT n = 52, THA n = 51): 27
Opportunistic Infections, percent ([3]; AZT n = 52, THA n = 51): 46%
Withdrawals for toxicity, number [4]: 29
Withdrawals for toxicity, percent [4]: 49%

Nc1c2c(nc3ccccc13)CCCC2 [Tacrine, 9-Amino-1,2,3,4-tetrahydroacridine]
Antigenemia, evolution (%) in comparison with D0 ([5]; D1mth): -35.3%
Antigenemia, evolution (%) in comparison with D0 ([5]; D2mth): -22.1%
Antigenemia, evolution (%) in comparison with D0 ([5]; D3mth): -24%
Antigenemia, evolution (%) in comparison with D0 ([5]; D4mth): -17%
Antigenemia, evolution (%) in comparison with D0 ([5]; D5mth): -19.4%
Antigenemia, evolution (%) in comparison with D0 ([5]; D6mth): -54%
Antigenemia, evolution (%) in comparison with D0 ([5]; D7mth): -51.3%
Antigenemia, evolution (%) in comparison with D0 ([5]; D15): -38.5%
Opportunistic infections, cases ([5]; in 4 patients): 4 cases
Kaposi sarcoma emergence ([5]; number of cases, 26 patients): 2
Opportunistic infections: pneumocystosis ([5]; number of cases, 26 patients): 1
Opportunistic infections: toxoplasmosis ([5]; number of cases, 26 patients): 1
Opportunistic infections, patients ([5]; seven month follow-up): 4/26
Mortality ([5]; seven month follow-up, 26 patients): none
T4 Lymphocytes counts, evolution (%) in comparison with D0 ([6]; D1mth): +16.7%
T4 Lymphocytes counts, evolution (%) in comparison with D0 ([6]; D2mth): +23.9%
T4 Lymphocytes counts, evolution (%) in comparison with D0 ([6]; D3mth): +19.5%
T4 Lymphocytes counts, evolution (%) in comparison with D0 ([6]; D4mth): +28%
T4 Lymphocytes counts, evolution (%) in comparison with D0 ([6]; D5mth): +26.6%
T4 Lymphocytes counts, evolution (%) in comparison with D0 ([6]; D6mth): +8.4%
T4 Lymphocytes counts, evolution (%) in comparison with D0 ([6]; D7mth): +25.6%
T4 Lymphocytes counts, evolution (%) in comparison with D0 ([6]; D15): +5%
Hematotoxicity: decrease of hematological counts ([7]; 26 patients): 0%
Hepatotoxicity: transaminase elevation ([7]; 26 patients): 0%
Nausea, cases ([7]; after the first month): 2 cases
Nausea, incidence ([7]; after the first month): 10%
Nausea, cases [7, 14]: 9 cases
Nausea, incidence [7, 14]: 35%
Withdrawals for side effects (severe nausea or neurologic), cases [7, 15]: 2 cases
Withdrawals for side effects (severe nausea or neurologic), incidence [7, 15]: 8%
T4 /mm^3, mean variation (%) in comparison with D0 ([1]; D1mth): +20.5%
T4 /mm^3, mean variation (%) in comparison with D0 ([1]; D2mth): +31.7%
T4 /mm^3, mean variation (%) in comparison with D0 ([1]; D3mth): +55.2%
T4 /mm^3, mean variation (%) in comparison with D0 ([1]; D4mth): +74.8%
T4 /mm^3, mean variation (%) in comparison with D0 ([1]; D5mth): +91.9%
T4 /mm^3, mean variation (%) in comparison with D0 ([1]; D6mth): +52%
T4 /mm^3, mean variation (%) in comparison with D0 ([1]; D7mth): +68.3%
Agp 24, mean variation (%) in comparison with D0 ([2]; D1mth): -39.4%
Agp 24, mean variation (%) in comparison with D0 ([2]; D2mth): -28.3%
Agp 24, mean variation (%) in comparison with D0 ([2]; D3mth): -26.2%
Agp 24, mean variation (%) in comparison with D0 ([2]; D4mth): -21.5%
Agp 24, mean variation (%) in comparison with D0 ([2]; D5mth): -18.7%
Agp 24, mean variation (%) in comparison with D0 ([2]; D6mth): -39.5%
Agp 24, mean variation (%) in comparison with D0 ([2]; D7mth): -25%
Deaths, number ([3]; AZT n = 52, THA n = 51): 0
Kaposi Emergence, number ([3]; AZT n = 52, THA n = 51): 2
Kaposi Emergence, percent ([3]; AZT n = 52, THA n = 51): 4%
Opportunistic Infections, number ([3]; AZT n = 52, THA n = 51): 3
Opportunistic Infections, percent ([3]; AZT n = 52, THA n = 51): 6%
Deaths, significance p in comparison with AZT courses ([3]; THA vs AZT courses): < 0.05
THA versus AZT course of treatment, conclusion ([3]; after 6 months of treatment): decrease in Agp24 levels, mortality and incidences of opportunistic infections
Withdrawals for toxicity, number [4]: 4
Withdrawals for toxicity, percent [4]: 8%
IC50 ([8]; 37° C., 1 hour, read-out: 50% inhibition (Di50) of HIV 1 reverse transcriptase (converted)): 400 µM and 504 µM
Inhibition of HIV 1 reverse transcriptase in combination with HPA 23 ([8]; HPA 23 at 4 μg/ml): synergistic effect with HPA 23
Inhibiting effect on reverse transcriptase ([8]; conclusions): low
IC50 ([8]; specificity test vs DNA polymerase, same concentrations, read-out: Di50 with respect to the reverse transcriptase): 450 µM
IC50 [9]: 1000 µM
Dose dependence of protective effect in CEM cultures [10]: dose-dependent
Proliferation of HIV 1 infected CEM cultures ([10]; 1 μM THA): viral infection inhibits the proliferation
Proliferation of HIV 1 infected CEM cultures ([10]; 5 μM THA): the cells multiply up to the 16th. day and then decline to be destroyed like the previous cultures right up to the 28th day
Proliferation of HIV 1 infected CEM cultures ([10]; 10 μM THA): the cultures continue to proliferate right up to the 28th day
Protection of CEM cultures against lytic effect of HIV virus ([10]; at the 5 μM and more particularly at the 10 μM level): protects CEM cultures against the lytic effect of the HIV virus
Hepatotoxicity with purified sources of Tacrine [11]: hepatotoxicity can be avoided by utilizing purified sources of Tacrine
Viral replication with respect to control cultures [12]: viral replication persists although significantly diminished
Hepatotoxicity on long term administration [13]: long term administration of Tacrine is not practical because of hepatotoxicity

O=C(O)P(=O)(O)O [phosphonoformate]
IC50 ([8]; 50% inhibition (Di50) of HIV 1 reverse transcriptase, 37° C., 1 hour): 1 µM
